Test results as given in patent US4096173A, “Chlorinated 1-aminoindane N-methyl transferase inhibitors” (Eli Lilly and Company, priority 1977, dated 1978).
Where a name gives a salt, the structure may show the parent alone. Read-outs that look alike come from different tables or passages of the source.

Key:
[1] = biological target: T1, NMT from rabbit adrenals (norephineprine N-methyl transferase, PNMT) (Oryctolagus cuniculus, UniProt G1TT82); test: In vitro inhibition of N-methyl transferase (NMT) from rabbit adrenals; assay type: biochemical
T1 construct: NMT from rabbit adrenals; from tissue; host or cells: rabbit adrenals
T1 sequence (G1TT82 1-286): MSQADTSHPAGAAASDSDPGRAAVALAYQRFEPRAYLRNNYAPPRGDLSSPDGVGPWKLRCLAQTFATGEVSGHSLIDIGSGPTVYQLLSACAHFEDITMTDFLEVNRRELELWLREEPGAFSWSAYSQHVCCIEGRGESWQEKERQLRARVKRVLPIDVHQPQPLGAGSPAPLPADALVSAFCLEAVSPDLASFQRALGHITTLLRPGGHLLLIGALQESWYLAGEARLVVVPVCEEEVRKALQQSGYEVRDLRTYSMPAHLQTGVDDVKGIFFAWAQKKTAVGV
Description: The compounds of this invention, either in the form of the free base, or as a pharmaceutically-acceptable acid addition salt thereof, are enzyme inhibitors. In particular, as previously stated, they are inhibitors of norephineprine N-methyl transferase [PNMT or phenethanolamine N-methyl transferase--see Axelod, J. Bio, Chem., 237, 1657 (1962)]. Compounds which inhibit the conversion of norephineprine to […], are capable of lowering a high […]-norephineprine ratio in mammals, a physiological condition frequently associated with essential hypertension. The compounds of this invention are thus capable of ameliorating the […]-norephineprine imbalance in essential hypertension, an important aspect of the treatment of this disease state. The effectiveness of the compounds as N-methyl transferase inhibitors has been measured in vitro using NMT from rabbit adrenals. […] The negative reciprocal logarhithm (pI50) of this number was also calculated as a useful index. Table 1, which follows, summarizes the information thus obtained; i.e., the determination of enzyme inhibition activity for the compounds of this invention.

[2] = test system: catechol amine uptake; conditions: comparison stated in the literature; cited from earlier work
[3] = read-out: pI50 (negative reciprocal logarhithm of the 50 percent inhibitory concentration) (converted)
[4] = series of decreasing inhibitor concentrations from 1 × 10^-4 M, read-out: 50 Inhibitory Concentration (concentration at which 50 percent inhibition of NMT is obtained)

SMILES	IC50 [1, 3] [nM]	IC50 [1, 4] [nM]	inhibition of catechol amine uptake, compared with 1-aminoindane [2]
NC1CCc2ccc(Cl)c(Cl)c21 (stereo not drawn) [6,7-dichloro-1-aminoindane]	6030	5370	
NC1CCc2c1ccc(Cl)c2Cl (stereo not drawn) [4,5-dichloro-1-aminoindane]	200	200	
NC1Cc2ccccc2C1 [2-aminoindane]			better inhibitor of catechol amine uptake than 1-aminoindane
NC1CCc2cc(Cl)c(Cl)cc21 (stereo not drawn) [5,6-dichloro-1-aminoindane maleate]	4680	2950	
NC1CCc2c(Cl)cccc21 (stereo not drawn) [4-Chloro-1-aminoindane hydrochloride, 4-chloro-1-aminoindane hydrochloride]	759	757	
